In article PMC7251097, “Aspartate/asparagine-β-hydroxylase: a high-throughput mass spectrometric assay for discovery of small molecule inhibitors” (Scientific Reports, 2020):
Where a name gives a salt, the structure may show the parent alone. Read-outs that look alike come from different tables or passages of the source.

Target: T1, His6-AspH315–758 (human aspartate/asparagine-β-hydroxylase, AspH) (Homo sapiens, UniProt Q12797)
T1 construct: N-Terminally His6-tagged human AspH315–758 (His6-AspH315–758) was produced in E. coli BL21 (DE3) cells; made in house; host or cells: E. coli BL21 (DE3), pET-28a(+) vector
T1 sequence (Q12797 315-758): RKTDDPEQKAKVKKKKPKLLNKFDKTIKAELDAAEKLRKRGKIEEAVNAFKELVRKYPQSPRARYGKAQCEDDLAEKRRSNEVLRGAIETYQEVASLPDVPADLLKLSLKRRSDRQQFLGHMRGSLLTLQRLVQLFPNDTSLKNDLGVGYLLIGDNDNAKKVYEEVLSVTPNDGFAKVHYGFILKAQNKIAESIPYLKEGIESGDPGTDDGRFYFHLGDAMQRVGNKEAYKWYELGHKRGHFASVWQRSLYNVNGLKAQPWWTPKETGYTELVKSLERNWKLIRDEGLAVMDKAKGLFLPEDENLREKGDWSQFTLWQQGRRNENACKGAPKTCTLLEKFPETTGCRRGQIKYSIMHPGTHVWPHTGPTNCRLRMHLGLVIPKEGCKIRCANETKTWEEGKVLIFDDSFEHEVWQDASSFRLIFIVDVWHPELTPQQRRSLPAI
Experiment: SPE-MS AspH inhibition assay (LOPAC screen at fixed 20 μM and IC50 dose-response), hydroxylation of cyclic peptide hFX-CP101–119
Assay type: biochemical
Conditions: for Plate 5 (% inhibition) / Plate 5 (% conversion): plate 5 (Pfitzer), test compounds at fixed 20 μM; for Plate 5 (% conversion): mean conversion DMSO 32.88; for Plate 2 (% inhibition): normalised to DMSO and 2,4-PDCA controls

[1] = AspH activity, fixed compound concentration 20 μM, initial LOPAC screen, 0.5%v/v DMSO, read-out: Inhibition at 20 µM [%]
[2] = LOPAC Plate 4, compound at 20 uM, substrate conversion
[3] = LOPAC Plate 4, compound at 20 uM, read-out: % inhibition
[4] = LOPAC Plate 4, compound at 20 uM
[5] = LOPAC compound at 20uM, plate 2, conversion of substrate peptide
[6] = LOPAC compound at 20uM, plate 2
[7] = LOPAC compound at 20uM, plate 3, conversion of substrate peptide
[8] = LOPAC compound at fixed 20 uM, plate 1, normalised to DMSO and 2,4-PDCA controls
[9] = LOPAC compound at fixed 20 uM, substrate conversion, plate 1

N#CC(C#N)=Cc1ccc(O)c(O)c1 [Tyrphostin 23, reference compound]
inhibition at 20 µM [1]: 98.7%
% conversion [2]: 2.79%
inhibition at 20 µM [3]: 98.7%

N#C/C(=C\c1ccc(O)c(O)c1)C(N)=S [Tyrphostin 47, reference compound]
% conversion: 2.14%
inhibition at 20 µM: 101%
inhibition at 20 µM (read-out: Inhibition at 20 µM [%]): 101%

N#CC(C#N)=C(N)/C(C#N)=C/c1cc(O)c(O)c(O)c1 [Tyrphostin 51, reference compound]
inhibition at 20 µM [1]: 101%
% conversion [2]: 2.15%
inhibition at 20 µM [3]: 101%

N#CC(C#N)=C(N)/C(C#N)=C/c1ccc(O)cc1 [Tyrphostin AG 112]
% inhibition [4]: -1.91%
% conversion [2]: 37.12%

N#C/C(=C\c1ccc(O)c(O)c1)C(=O)c1ccc(O)c(O)c1 [Tyrphostin AG 538]
% conversion [2]: 29.27%

CC(C)(C)c1cc(/C=C(\C#N)C(N)=S)cc(C(C)(C)C)c1O [Tyrphostin AG 879]
% conversion [2]: 26.24%

COc1cc2ncnc(Nc3cccc(Cl)c3)c2cc1OC [Tyrphostin AG 1478]
% conversion [2]: 38.87%
inhibition at 20 µM [3]: -7.04%

N#CC(=C(/N)Sc1ccccc1N)/C(C#N)=C(/N)Sc1ccccc1N [U0126]
% inhibition [4]: -0.28%
% conversion [2]: 36.57%

COc1ccc2c(c1)CC[C@@H]1[C@@H]2CC[C@]2(C)[C@@H](NCCCCCCN3C(=O)CCC3=O)CC[C@@H]12 [U-73343]
Plate 3 (% conversion): 43.26%

C[C@]12C=CC(=O)C=C1CC[C@@H]1C2=CC[C@]2(C)[C@@H](C(=O)CN3CCN(c4cc(N5CCCC5)nc(N5CCCC5)n4)CC3)CC[C@@H]12.O=C(O)/C=C\C(=O)O [U-74389G maleate]
% conversion: 25.11%
% inhibition [4]: 33.28%

CCCN(CCC)C1Cc2cc(OC)c(OC)cc2C1.O=C(O)/C=C\C(=O)O [U-99194A maleate]
% inhibition [4]: 4.59%
% conversion [2]: 34.90%

CC(C)Oc1cccnc1N(C)C1CCN(Cc2ccccc2)CC1.O=C(O)/C=C\C(=O)O [U-101958 maleate]
% conversion [2]: 35.76%

Brc1c(NC2=NCCN2)ccc2nccnc12 [UK 14,304]
% conversion: 39.75%
% inhibition (20 µM): -9.62%

N#C/C(=C\c1cn(-c2ccccc2)c2ccccc12)C(=O)O [UK-5099]
Plate 5 (% inhibition): 37.56%
Plate 5 (% conversion): 23.53%

Cc1cc(CCC[C@H](CC(=O)NO)C(=O)N[C@H](C(=O)N[C@H](C)c2ccccc2)C(C)(C)C)ccc1-c1ccccc1 [UK-356618]
Plate 5 (% inhibition): 84.86%
Plate 5 (% conversion): 7.43%

NC(=O)c1noc([C@H](CCCC2CCCCC2)CC(=O)NO)n1 [UK-383367]
Plate 5 (% inhibition): 50.83%
Plate 5 (% conversion): 19.02%

COc1ccccc1N1CCN(CCCNc2cc(=O)n(C)c(=O)n2C)CC1 [Urapidil hydrochloride]
% conversion [2]: 27.32%

COc1ccccc1N1CCN(CCCNc2c(C)c(=O)n(C)c(=O)n2C)CC1 [Urapidil, 5-Methyl-]
% conversion: 36.82%

O=c1ccn([C@@H]2O[C@H](COP(=O)([O-])OP(=O)([O-])O)[C@@H](O)[C@H]2O)c(=O)[nH]1.[Na+].[Na+] [Uridine 5-diphosphate sodium]
% inhibition [4]: -0.23%
% conversion [2]: 36.55%

C[C@H](N)CN1CCc2ccc(Br)cc21.C[C@H](N)CN1CCc2ccc(Br)cc21.O=C(O)/C=C/C(=O)O [VER-3323 hemifumarate salt]
Plate 3 (% conversion): 21.58%

Cc1onc(-c2ccccc2)c1-c1ccc(S(N)(=O)=O)cc1 [Valdecoxib]
Plate 5 (% inhibition): 27.98%
Plate 5 (% conversion): 26.79%

CC(C)C(N)C(=O)OCC(CO)OCn1cnc2c(=O)[nH]c(N)nc21.Cl.O (centres unmarked) [Valganciclovir hydrochloride hydrate]
Plate 2 (% conversion) [5]: 38.77%
Plate 2 (% inhibition) [6]: -8.41%

CCCC(CCC)C(=O)O [Valproic acid sodium]
Plate 3 (% conversion) [7]: 37.52%

CCN(CC)C(=O)c1ccc(O)c(OC)c1 [Vanillic acid diethylamide]
Plate 2 (% conversion) [5]: 35.22%
Plate 2 (% inhibition) [6]: 2.19%

O=C(O)C(O)C(O)C(=O)O.c1cnc2cc3c(cc2n1)[C@@H]1CNC[C@H]3C1 [Varenicline tartrate]
Plate 1 (% inhibition) [8]: 66.93%
Plate 1 (% conversion) [9]: 13.40%

c1cnc2cc3c(cc2n1)[C@@H]1CNC[C@H]3C1 [Varenicline]
Plate 5 (% inhibition): 75.86%
Plate 5 (% conversion): 10.50%

COc1ccc(C(CN(C)C)C2(O)CCCCC2)cc1 (centres unmarked) [Venlafaxine hydrochloride]
Plate 2 (% conversion): 36.45%
inhibition at 20 µM (read-out: Plate 2 (% inhibition)): -1.48%

CC[C@]1(O)C[C@@H]2CN(CCc3c([nH]c4ccccc34)[C@@](C(=O)OC)(c3cc4c(cc3OC)N(C)[C@H]3[C@@](O)(C(=O)OC)[C@H](OC(C)=O)[C@]5(CC)C=CCN6CC[C@]43[C@@H]65)C2)C1.O=S(=O)(O)O [Vinblastine sulfate salt]
% conversion: 54.00%
% inhibition (20 µM): -51.36%

CC[C@]1(O)C[C@H]2CN(CCc3c([nH]c4ccccc34)[C@@](C(=O)OC)(c3cc4c(cc3OC)N(C=O)[C@H]3[C@@](O)(C(=O)OC)[C@H](OC(C)=O)[C@]5(CC)C=CCN6CC[C@]43[C@@H]65)C2)C1 [Vincristine sulfate]
% conversion [2]: 40.04%
inhibition at 20 µM [3]: -10.5%

CCOC(=O)C1=C[C@]2(CC)CCCN3CCc4c(n1c1ccccc41)[C@@H]32 [Vinpocetine]
% conversion [2]: 29.87%

C[C@@H](c1ncncc1F)[C@](O)(Cn1cncn1)c1ccc(F)cc1F [Voriconazole]
Plate 1 (% inhibition) [8]: -9.17%
Plate 1 (% conversion) [9]: 38.95%
Plate 5 (% inhibition): -1.65%
Plate 5 (% conversion): 36.88%

COc1ccccc1N1CCN(CCN(C(=O)C2CCCCC2)c2ccccn2)CC1.O=C(O)/C=C\C(=O)O [WAY-100635 maleate]
% conversion: 42.39%
% inhibition (20 µM): -17.34%

C#C[C@]1(O)CC[C@H]2[C@@H]3CCC4=Cc5nc6nc7ccccc7n6cc5C[C@]4(C)[C@H]3CC[C@@]21C [WIN 62,577]
% conversion: 37.03%
% inhibition (20 µM): -1.63%

COC[C@H]1OC(=O)c2coc3c2[C@@]1(C)C1=C(C3=O)[C@@H]2CCC(=O)[C@@]2(C)C[C@H]1OC(C)=O [Wortmannin from Penicillium funiculosum]
% conversion: 29.28%

COc1cc(/C=C(\C#N)C(=O)Nc2nnc(C(F)(F)F)s2)ccc1OCc1ccc(C(F)(F)F)cc1C(F)(F)F [XCT790]
% conversion [2]: 22.43%

Cc1cccc(C)c1N=C1NCCCS1 [Xylazine hydrochloride]
% conversion: 33.11%

Cc1cc(C(C)(C)C)cc(C)c1CC1=NCCN1 [Xylometazoline hydrochloride]
% conversion: 31.88%

CCc1ccc2c(-c3cccc(Cl)c3)nc(=O)n(CC)c2n1 [YM 976]
Plate 1 (% inhibition) [8]: -17.07%
Plate 1 (% conversion) [9]: 41.61%

COc1ccc(CCN(C)CCc2ccc(OC)c(OC)c2)cc1OC.Cl [YS-035 hydrochloride]
% inhibition [4]: -13.70%
% conversion [2]: 41.15%

COC(=O)[C@@H]1[C@H]2C[C@H]3c4[nH]c5ccccc5c4CCN3C[C@@H]2CC[C@@H]1O [Yohimbine hydrochloride]
inhibition at 20 µM: -4.13%

O=C(N[C@@H](Cc1ccccc1)C(=O)CCl)OCc1ccccc1 [Z-L-Phe chloromethyl ketone]
Plate 1 (% conversion): 35.86%
Plate 1 (% inhibition): 0.032%

CC(C)N(CCC(=O)c1ccc2ccccc2c1)Cc1ccccc1.Cl [ZM 39923 hydrochloride]
Plate 3 (% conversion) [7]: 15.79%

CCCOc1ccccc1-c1nc2nn[nH]c2c(=O)[nH]1 [Zaprinast]
% conversion [2]: 35.45%
inhibition at 20 µM [3]: 2.99%

CN(C)C/C=C(/c1ccc(Br)cc1)c1cccnc1 [Zimelidine dihydrochloride]
% conversion [2]: 37.91%

O=C1Cc2cc(CCN3CCN(c4nsc5ccccc45)CC3)c(Cl)cc2N1 [Ziprasidone hydrochloride monohydrate]
% conversion [2]: 26.15%

C[C@H](CSC(=O)c1ccccc1)C(=O)N1C[C@@H](Sc2ccccc2)C[C@H]1C(=O)[O-].C[C@H](CSC(=O)c1ccccc1)C(=O)N1C[C@@H](Sc2ccccc2)C[C@H]1C(=O)[O-].[Ca+2] [Zofenopril calcium]
% conversion: 32.50%
% inhibition (20 µM): 11.63%

O=P(O)(O)C(O)(Cn1ccnc1)P(=O)(O)O [Zoledronic acid monohydrate]
Plate 3 (% conversion): 37.14%

NS(=O)(=O)Cc1noc2ccccc12 [Zonisamide sodium]
% conversion [2]: 32.12%

CC(N)Cc1c[nH]c2ccc(O)cc12.O=C(O)/C=C\C(=O)O (stereo not drawn) [alpha-Methyl-5-hydroxytryptamine maleate]
Plate 3 (% conversion): 39.06%
